# Experimental data from patent US9302999B2, “Substituted triazoles as herbicides” (E. I. DU PONT DE NEMOURS AND COMPANY, priority 2012, dated 2016).
# Columns and labels:
# Format in all cases: in vivo
# [1] = test system: crabgrass, large (large crabgrass, Digitaria sanguinalis); test: Test A pre-/postemergence: crabgrass, large; settings: for Crabgrass, Large plant response rating: Postemergence; for Plant response rating, Crabgrass, Large: Preemergence
# In short: (§1)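 Visual 0–100 injury ratings (0 no effect, 100 complete control) taken about ten days after treatment, relative to untreated controls. Preemergence treatment was a directed soil spray; postemergence plants were 2–10 cm tall at one- to two-leaf stage. Soil: loam/sand blend.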
# [2] = test system: chickweed (common chickweed, Stellaria media); test: Test C postemergence: chickweed
# In short: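 Visual 0–100 injury score vs untreated controls (0 none, 100 complete control), taken 13–15 d after treatment. Postemergence spray on potted plants, 2–18 cm, 1–4 leaves; greenhouse.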
# [3] = test system: morningglory (Ipomoea coccinea); test: Test C pre-/postemergence: morningglory
# In short: (§2)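 Preemergence on seeds in loam/sand, postemergence on 2–18 cm (1–4-leaf) plants in peat-based medium; compounds in non-phytotoxic solvent with surfactant. After 13–15 days in greenhouse, visual rating versus controls, 0 (no effect) to 100 (complete control).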
# [4] = test system: blackgrass (Alopecurus myosuroides); test: Test C pre-/postemergence: blackgrass
# In short: as §2
# [5] = test system: ragweed (common ragweed, Ambrosia elation); test: Test C pre-/postemergence: ragweed
# In short: as §2
# [6] = test system: wheat (Triticum aestivum); test: Test A pre-/postemergence: wheat; settings: for Wheat plant response rating: Postemergence; for Plant response rating, Wheat: Preemergence
# In short: as §1
# [7] = test system: velvetleaf (Abutilon theophrasti); test: Test A pre-/postemergence: velvetleaf; settings: for Velvetleaf plant response rating: Postemergence; for Plant response rating, Velvetleaf: Preemergence
# In short: as §1
# [8] = test system: foxtail, giant (giant foxtail, Setaria faberii); test: Test A pre-/postemergence: foxtail, giant; settings: for Foxtail, Giant plant response rating: Postemergence; for Plant response rating, Foxtail, Giant: Preemergence
# In short: as §1
# [9] = test system: pigweed (Amaranthus retroflexus); test: Test A pre-/postemergence: pigweed; settings: for Pigweed plant response rating: Postemergence; for Plant response rating, Pigweed: Preemergence
# In short: as §1
# [10] = 125 g ai/ha, 0 to 100 scale, 0 is no effect, 100 is complete control
# [11] = 500 g ai/ha, visual rating on 0 to 100 scale (0 no effect, 100 complete control), approximately ten days
# [12] = 125 g ai/ha, 0 to 100 scale (0 no effect, 100 complete control)
# [13] = 500 g ai/ha, 0 to 100 scale, 0 is no effect, 100 is complete control
# [14] = 31 g ai/ha, scale 0 to 100 (0 no effect, 100 complete control)
# [15] = 62 g ai/ha, scale 0 to 100 (0 no effect, 100 complete control)
# [16] = 125 g ai/ha, scale 0 to 100, 0 no effect, 100 complete control
# [17] = Postemergence, 31 g ai/ha, scale 0 to 100 (0 no effect, 100 complete control)
# [18] = Postemergence, 62 g ai/ha, scale 0 to 100 (0 no effect, 100 complete control)
# [19] = Postemergence, 125 g ai/ha, scale 0 to 100, 0 no effect, 100 complete control
# [20] = Postemergence, 250 g ai/ha, scale 0 to 100
# [21] = Preemergence, 31 g ai/ha, scale of 0 to 100, 0 is no effect, 100 is complete control
# [22] = Preemergence, 62 g ai/ha, scale of 0 to 100, 0 is no effect, 100 is complete control
# [23] = Preemergence, 125 g ai/ha, scale 0 to 100, 0 no effect, 100 complete control
# [24] = Preemergence, 250 g ai/ha, scale 0 to 100, 0 no effect, 100 complete control
# [25] = Preemergence, 62 g ai/ha, scale 0 to 100, 0 no effect, 100 complete control
# [26] = 125 g ai/ha, 0 to 100 scale where 0 is no effect and 100 is complete control
# [27] = 500 g ai/ha, 0 to 100 scale (0 no effect, 100 complete control)
compound,measurement,setting,value
Cc1nn(-c2ccc(C(F)(F)F)cn2)nc1Oc1ccnc(C(F)(F)F)c1 [Compound 23],"Crabgrass, Large plant response rating",[1]; [10],90
same,"Crabgrass, Large plant response rating",[1]; [11],90
same,"Plant response rating, Crabgrass, Large",[1]; [12],100
same,"Plant response rating, Crabgrass, Large",[1]; [13],100
same,"Plant response rating, Chickweed",[2]; [14],30
same,"Plant response rating, Chickweed",[2]; [15],55
same,"Plant response rating, Chickweed",[2]; [16],60
same,"Plant response rating, Chickweed","[2]; 250 g ai/ha, scale 0 to 100",70
same,"Plant response rating, Morningglory",[3]; [17],70
same,"Plant response rating, Morningglory",[3]; [18],70
same,"Plant response rating, Morningglory",[3]; [19],90
same,"Plant response rating, Morningglory",[3]; [20],90
same,"Plant response rating, Morningglory",[3]; [21],20
same,"Plant response rating, Morningglory",[3]; [22],20
same,"Plant response rating, Morningglory",[3]; [23],100
same,"Plant response rating, Morningglory",[3]; [24],100
same,"Plant response rating, Blackgrass",[4]; [17],15
same,"Plant response rating, Blackgrass",[4]; [18],20
same,"Plant response rating, Blackgrass",[4]; [19],20
same,"Plant response rating, Blackgrass",[4]; [20],25
same,"Plant response rating, Blackgrass",[4]; [21],5
same,"Plant response rating, Blackgrass",[4]; [25],85
same,"Plant response rating, Blackgrass",[4]; [23],100
same,"Plant response rating, Blackgrass",[4]; [24],100
same,"Plant response rating, Ragweed",[5]; [17],10
same,"Plant response rating, Ragweed",[5]; [18],10
same,"Plant response rating, Ragweed",[5]; [19],20
same,"Plant response rating, Ragweed",[5]; [20],20
same,"Plant response rating, Ragweed",[5]; [21],5
same,"Plant response rating, Ragweed",[5]; [22],20
same,"Plant response rating, Ragweed",[5]; [23],20
same,"Plant response rating, Ragweed",[5]; [24],60
same,Wheat plant response rating,[6]; [10],20
same,Wheat plant response rating,[6]; [11],50
same,"Plant response rating, Wheat",[6]; [12],0
same,"Plant response rating, Wheat",[6]; [13],70
same,Velvetleaf plant response rating,[7]; [10],90
same,Velvetleaf plant response rating,[7]; [11],100
same,"Plant response rating, Velvetleaf",[7]; [12],50
same,"Plant response rating, Velvetleaf",[7]; [13],100
same,"Foxtail, Giant plant response rating",[8]; [10],90
same,"Foxtail, Giant plant response rating",[8]; [11],90
same,"Plant response rating, Foxtail, Giant",[8]; [12],100
same,"Plant response rating, Foxtail, Giant",[8]; [13],100
same,Pigweed plant response rating,[9]; [10],100
same,Pigweed plant response rating,[9]; [11],100
same,"Plant response rating, Pigweed",[9]; [12],100
same,"Plant response rating, Pigweed",[9]; [13],100
Cc1nn(-c2ccc(C(F)(F)F)cc2)nc1Oc1ccnc(C(F)(F)F)c1 [Compound 120],"Crabgrass, Large plant response rating",[1]; [10],80
same,"Crabgrass, Large plant response rating",[1]; [11],90
same,"Plant response rating, Crabgrass, Large",[1]; [26],100
same,"Plant response rating, Crabgrass, Large",[1]; [27],100
same,"Plant response rating, Chickweed",[2]; [14],75
same,"Plant response rating, Chickweed",[2]; [15],100
same,"Plant response rating, Chickweed",[2]; [16],100
same,"Plant response rating, Chickweed","[2]; 250 g ai/ha, scale 0 to 100",100
same,"Plant response rating, Morningglory",[3]; [17],60
same,"Plant response rating, Morningglory",[3]; [18],60
same,"Plant response rating, Morningglory",[3]; [19],65
same,"Plant response rating, Morningglory",[3]; [20],98
same,"Plant response rating, Morningglory",[3]; [21],45
same,"Plant response rating, Morningglory",[3]; [22],45
same,"Plant response rating, Morningglory",[3]; [23],45
same,"Plant response rating, Morningglory",[3]; [24],90
same,"Plant response rating, Blackgrass",[4]; [17],25
same,"Plant response rating, Blackgrass",[4]; [18],30
same,"Plant response rating, Blackgrass",[4]; [19],60
same,"Plant response rating, Blackgrass",[4]; [20],85
same,"Plant response rating, Blackgrass",[4]; [21],90
same,"Plant response rating, Blackgrass",[4]; [25],90
same,"Plant response rating, Blackgrass",[4]; [23],90
same,"Plant response rating, Blackgrass",[4]; [24],90
same,"Plant response rating, Ragweed",[5]; [17],60
same,"Plant response rating, Ragweed",[5]; [18],60
same,"Plant response rating, Ragweed",[5]; [19],80
same,"Plant response rating, Ragweed",[5]; [20],85
same,"Plant response rating, Ragweed",[5]; [21],0
same,"Plant response rating, Ragweed",[5]; [22],45
same,"Plant response rating, Ragweed",[5]; [23],45
same,"Plant response rating, Ragweed",[5]; [24],65
same,Wheat plant response rating,[6]; [10],10
same,Wheat plant response rating,[6]; [11],30
same,"Plant response rating, Wheat",[6]; [26],10
same,"Plant response rating, Wheat",[6]; [27],20
same,Velvetleaf plant response rating,[7]; [10],50
same,Velvetleaf plant response rating,[7]; [11],80
same,"Plant response rating, Velvetleaf",[7]; [26],40
same,"Plant response rating, Velvetleaf",[7]; [27],70
same,"Foxtail, Giant plant response rating",[8]; [10],80
same,"Foxtail, Giant plant response rating",[8]; [11],80
same,"Plant response rating, Foxtail, Giant",[8]; [26],100
same,"Plant response rating, Foxtail, Giant",[8]; [27],100
same,Pigweed plant response rating,[9]; [10],90
same,Pigweed plant response rating,[9]; [11],100
same,"Plant response rating, Pigweed",[9]; [26],100
same,"Plant response rating, Pigweed",[9]; [27],100
